Measurements from patent US12605351B2, “Method for producing a composition comprising a 3-O-p-coumaroyl ester of tormentic acid from a plant cell culture, applications thereof as antiparasitic agent for the treatment of trypanosomiasis” (LUXEMBOURG INSTITUTE OF SCIENCE AND TECHNOLOGY, priority 2019, dated 2026).
Like-named read-outs stand apart in the source and are kept apart here.

Columns and labels:
[1] = test system: Human normal fibroblast cell line (WI-38); assay: cells; format: cell-based
Protocol: The cytotoxicity of tested compounds was evaluated in parallel on a Human normal fibroblast cell line (WI-38) cultivated in a humidified atmosphere with 5% CO2 at 37° C. Human normal fibroblast cell line (WI-38) was cultivated in DMEM medium (Life Technologies) containing 4 mM L-glutamine, 1 mM sodium pyruvate supplemented with 10% fetal bovine serum (Sigma) and penicillin-streptomycin (100 UI/mL).
(§1) Suramine (a commercial anti-trypanosomal drug) and camptothecin were used as positive controls. Stock solutions of compounds to be tested were prepared at a concentration of 10 mg/mL in DMSO. The solutions were further diluted in medium (described in 1.1) to give 0.1 mg/mL stock solutions. Extracts and compounds were tested in eight serial three-fold dilutions (final concentration range: 50-0.02 mg/L) in 96-well microliter plates. All tests were performed at least in duplicate.

[2] = test system: Trypanosoma brucei brucei; assay: In vivo anti-trypanosomal activity in infected mice; set-up: species or system NMRI mice; details: for survival of infected mice in comparison to the untreated group: 50 mg/kg/d i.p. day 3-7 post-infection, followed to day 19; for parasitemia: day 4 post-infection, 50 mg/kg/day intraperitoneally, 10^4 Tbb/mouse; for survival increase: day 12 post-infection, 50 mg/kg i.p. day 3-7
From the text: (§2) NMRI mice (6-8 weeks of age) obtained from Envigo Laboratories (The Netherlands) were used. All in vivo experiments performed were approved by the Ethical Committee for animals use at the Health Sciences Sector of the Catholic University of Louvain (2017/UCL/MD/017).
Mice were randomly divided into 6 mice per group for 3-O-cis/trans-p-coumaroyltormentic acid (mixture of cis and trans) and ursolic acid, 4 for positive control (Suramine) and 7 for the negative control, and were infested intraperitoneally with 10^4 Trypanosoma brucei brucei. All compounds were solubilized in the vehicle (water-tween 80-ethanol) and administered intraperitoneally. 3-O-cis/trans-p-coumaroyltormentic acid or ursolic acid (UA) were administered at 50 mg/kg at day 3 after infection with the parasite and then every day until day 7 post-infection. Suramine (0.5 mg/kg) was administered while vehicle was used as a negative control. From day 3 post infection, a drop of blood collected each day from mouse-tail was used to count parasitemia.

[3] = In vivo acute toxicity test (highest tolerated dose); set-up: species or system NMRI mice; details: for acute toxicity: intraperitoneally every 2 hours, 10-15-25-50 mg/kg, monitored 48 h
From the text: as §2
The assessment of the highest tolerated dose was based on a DNDi protocol by Loset J.-R. et al. (V. Drug Screening for Kinetoplastids Diseases. A Training Manual for Screening in Neglected Diseases-DNDi, 2009) and adapted by Beaufay C. et al. (Malar J., 2017, 16, doi:10.1186/s12936-017-2054-y). Briefly, 3-O-cis/trans-p-coumaroyltormentic acid isolated from fractions F-F9 obtained from a callus of Malus domestica Cox cultivar of example 1 above was given intraperitoneally every 2 hours to 2 mice using increasing doses: 10-15-25-50 mg/kg from stock solutions of 10 mg/mL. Mice were controlled for any health problem symptoms or behavioral changes and monitored for weight and hematocrit after each injection and every day during 48 h after administration. Main organs (heart, liver, spleen, lung and kidney) of treated mice were observed and weighed wet during autopsy. Control group received the vehicle, distilled water with 10% of tween 80-ethanol (7:3). The total injected dose was finally recorded and will ensure the non-toxicity of in vivo anti-trypanosomal test.

[4] = test system: Trypanosoma brucei brucei bloodstream forms (strain 427); assay: In vitro antitrypanosomal activity on Tbb BSF; format: cell-based; details: for SI (Selectivity Index): cytotoxicity in WI38 compared to Tbb
Protocol: Antiparasitic activities were evaluated in vitro on Trypanosoma brucei brucei bloodstream forms (strain 427) (Tbb BSF). Tbb BSF were cultured in vitro at 37° C. with 5% CO2 in HMI9 medium containing 10% heat-inactivated fetal bovine serum, […] ([…]) and L-cysteine ([…]).
as §1, with “In vitro tests were performed as previously described by Hoet S. et al. (Planta Med., 2004, 70, 407-413, doi:10.1055/s-2004-818967). Suramine” for “Suramine”

[5] = test system: Trypanosoma brucei brucei; details: review Isah et al. 2016; cited from earlier work
Trypanosoma cruzi = details: review Isah et al. 2016; cited from earlier work
MCR-5 cells = details: cited from earlier work
[6] = cytotoxicity, WI-38 human fibroblasts, Table 3
[7] = cytotoxicity, WI-38 human fibroblasts, Table 3, read-out: WI38 (IC50 μM)
[8] = Tbb bloodstream forms strain 427, Table 3
[9] = Tbb bloodstream forms strain 427, Table 3, read-out: Tbb (IC50 μM)
[10] = cytotoxicity, WI-38 human fibroblasts, Table 3, read-out: WI38 (IC50 μg/mL)
[11] = Trypanosoma brucei, Tbb bloodstream forms strain 427, Table 3, read-out: Tbb (IC50 μM)
[12] = Trypanosoma brucei, Tbb bloodstream forms strain 427, Table 3, read-out: Tbb (IC50 μg/mL)

| Compound | WI38 (IC50 μg/mL) [1, 6] [µg/mL] | IC50 [1, 7] [µM] | Tbb (IC50 μg/mL) [4, 8] [µg/mL] | IC50 [4, 9] [µM] | SI (Selectivity Index) [4] | IC50 [4, 11] [µM] | IC50 [4, 12] [µg/mL] | further results |
| --- | --- | --- | --- | --- | --- | --- | --- | --- |
| 3β-trans/cis-p-coumaroyl-2α,19α-dihydroxy-urs-12-en-28-oic acid [3-O-cis/trans-p-coumaroyltormentic acid] | 28.43 ± 0.79 | 44.8 ± 1.25 | 0.48 ± 0.36 | 0.75 ± 0.57 |  |  |  | survival of infected mice in comparison to the untreated group ([2]; listed as 3-O-p-coumaroyl ester of tormentic acid): significant increase; survival of infected mice in comparison to the untreated group ([2]; listed as esters): significantly improved; parasitemia [2]: significant decrease; survival increase [2]: 33.3%; total cumulative highest tolerated dose ([3]; mice, intraperitoneal, repeated injections): 100 mg/kg; acute toxicity ([3]; mice): no acute toxic symptom; acute toxicity ([3]; mice, listed as 3-O-p-coumaroyl ester of tormentic acid): no acute toxicity; anti-trypanosomal activity, times higher than that of tormentic acid ([4]; in vitro, versus tormentic acid): 10 times |
| CC1(C)CC[C@]2(C(=O)O)CC[C@]3(C)C(=CC[C@@H]4[C@@]5(C)C[C@@H](O)[C@H](O)C(C)(C)[C@@H]5CC[C@]43C)[C@@H]2C1 [Maslinic acid] |  |  |  |  | 4.6 |  |  | IC50 ([1]; Homo sapiens, WI-38, read-out: WI38 (IC50 μM)): 44.1 ± 8.4 µM; IC50 ([1]; Homo sapiens, WI-38, read-out: WI38 (IC50 μg/mL)): 20.9 ± 3.97 µg/mL; IC50 ([4]; Trypanosoma brucei, read-out: Tbb (IC50 μM)): 9.41 ± 1.35 µM; IC50 ([4]; Trypanosoma brucei, read-out: Tbb (IC50 μg/mL)): 4.45 ± 0.64 µg/mL |
| CC1(C)CC[C@]2(C(=O)O)CC[C@]3(C)C(=CC[C@@H]4[C@@]5(C)CC[C@H](O)C(C)(C)[C@@H]5CC[C@]43C)[C@@H]2C1 [Oleanolic acid] |  | 63.3 ± 0.74 |  |  | 10.9 | 5.83 ± 0.7 | 2.66 ± 0.32 | IC50 [1, 10]: 28.9 ± 0.34 µg/mL |
| Cc1ccc(C(=O)Nc2ccc(S(=O)(=O)O)c3cc(S(=O)(=O)O)cc(S(=O)(=O)O)c23)cc1NC(=O)c1cccc(NC(=O)Nc2cccc(C(=O)Nc3cc(C(=O)Nc4ccc(S(=O)(=O)O)c5cc(S(=O)(=O)O)cc(S(=O)(=O)O)c45)ccc3C)c2)c1 [Suramine] |  |  |  |  |  | 0.038 ± 0.008 | 0.05 ± 0.01 | survival till the end of the experiment ([2]; end of experiment day 19 post-infection): survive during all the experimental period |
| C[C@@H]1CC[C@]2(C(=O)O)CC[C@]3(C)C(=CC[C@@H]4[C@@]5(C)C[C@@H](O)[C@H](O)C(C)(C)[C@@H]5CC[C@]43C)[C@@H]2[C@]1(C)O [Tormentic acid] | 26.48 ± 0.33 | 54.2 ± 0.67 | 7.49 ± 0.33 | 15.3 ± 0.67 |  |  |  |  |
| C[C@H]1[C@H](C)CC[C@]2(C(=O)O)CC[C@]3(C)C(=CC[C@@H]4[C@@]5(C)CC[C@H](O)C(C)(C)[C@@H]5CC[C@]43C)[C@H]12 [Ursolic acid] |  | 11.1 ± 0.22 |  |  | 4.8 | 2.38 ± 0.24 | 1.08 ± 0.11 | IC50 [1, 10]: 5.08 ± 0.1 µg/mL; survival of infected mice in comparison to the untreated group [2]: no significant difference; parasitemia [2]: did not show any effect; survival increase [2]: 16.7%; total cumulative highest tolerated dose ([3]; NMRI, mouse, in vivo, ip, 48 h): 100 mg/kg; acute toxicity ([3]; mice): no acute toxic symptom |
| Annurcoic acid | 70.17 ± 6.82 | 144 ± 14 | 27.39 ± 2.24 | 56.3 ± 4.6 |  |  |  |  |
| tingenin |  |  |  |  |  |  |  | IC50 against Trypanosoma brucei brucei [5]: < 0.25 µg/mL; IC50 against Trypanosoma cruzi (Trypanosoma cruzi): < 0.25 µg/mL; cytotoxicity IC50 on MCR-5 cells (MCR-5 cells): 0.45 µg/mL |
